Among the data in paper PMC9919157, “Synergistic Inhibiting Effect of Phytochemicals in Rheum palmatum on Tyrosinase Based on Metabolomics and Isobologram Analyses” (Molecules, 2023) are Emax values, retold here.

In the test the target is T1, mushroom tyrosinase (TYR) (Agaricus bisporus, UniProt C7FF04).
T1 construct: gene PPO3
The test can be described thus: dopachrome assay with L-DOPA substrate; partial inhibition only (maximum about […]; IC20 […]). It counts as biochemical.

T1 sequence (C7FF04 2-392): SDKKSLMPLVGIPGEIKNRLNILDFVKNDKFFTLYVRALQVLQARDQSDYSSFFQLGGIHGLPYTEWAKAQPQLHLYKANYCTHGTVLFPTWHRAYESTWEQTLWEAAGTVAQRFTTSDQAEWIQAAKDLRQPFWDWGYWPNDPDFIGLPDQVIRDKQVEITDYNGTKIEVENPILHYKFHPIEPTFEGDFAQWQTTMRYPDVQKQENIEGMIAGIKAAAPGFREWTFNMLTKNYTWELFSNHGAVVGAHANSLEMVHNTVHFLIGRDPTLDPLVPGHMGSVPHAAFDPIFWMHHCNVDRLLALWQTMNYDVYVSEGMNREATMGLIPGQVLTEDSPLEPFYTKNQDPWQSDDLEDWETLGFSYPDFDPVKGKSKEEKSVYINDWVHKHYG

The term Emax denotes the maximal effect, on the per cent scale that the assay sets. In the case of `Oc1cc(O)c2c(c1)O[C@H](c1ccc(O)c(O)c1)[C@@H](O)C2` [CH, catechin hydrate], the Emax was approximately 25%.
